Measured values from patent publication US20080014247A1, “METAL-CONTAINING FORMULATIONS AND METHODS OF USE” (Nucryst Pharmaceuticals, priority 2006, published 2008).
Values after ≈ are worked out from the molar mass of the structure shown. “Also recorded” adds a separate entry of the source. Read-outs that look alike come from different tables or passages of the source.

Assays:
[1] = Compatibility of nanocrystalline silver with excipients; format: physicochemical; details: 10% aqueous solution of excipient, 40° C. overnight
Enterobacter cloacae = experiment: MIC assay (microdilution); format: cell-based
Escherichia coli = experiment: MIC assay (microdilution); format: cell-based
[2] = test system: Mycobacterium tuberculosis H37Ra (ATCC 25177); experiment: microbe, parasite or virus in culture; format: cell-based
DNBS-induced colitis [3] = experiment: DNBS-induced colitis in rat: total IBD score; format: in vivo
Description: Animals: Male Sprague-Dawley rats, weighing approximately 250-300 gm were purchased from Charles River Laboratories (Raleigh, N.C.). The animals were housed under standard conditions with free access to food and water. They were acclimatized for 2-3 days before commencing the experiments. The study protocol was approved by the Institutional Animal Care and Use Committees (IACUC).
Induction of ulcerative colitis: Colitis was produced according to published methods. Animals were anesthetized by intraperitoneal injection of 75 mg/kg of ketamine plus 5 mg/kg of xylazine. A single intracolonic injection of 120 mg/ml of dinitrobenzenesulfonic acid (DNBS) (Sigma Chemicals, St. Louis, Mo.) in 250 micro liter of 50% ethanol was administered through a Tom Cat catheter (Kendall Sovereign, Mansfield, Mass.) with a closed-end tip, connected to a 1 ml syringe and placed 7 cm proximal to the anus. Lubricant was applied to the tip of the catheter before injection, to protect from mucosal injury. After instillation of DNBS, 0.5 ml of air was insufflated and the catheter was removed.
Sulfasalazine (Sigma Chemicals, St Louis, Mo.), at a concentration of 120 mg/ml for intracolonic treatment and 30 mg/ml for oral treatment was used as the reference drug in all the experiments. Sulfasalazine was first dissolved in 0.1M NaOH at a concentration about 30-fold higher than the required final concentration, and then suspended in 1.5% PVA for oral dosing and 5.7% PVA for intracolonic dosing.
One group was not treated and served as no treatment group. Treatment began one day after administration of DNBS.
Macroscopic Observations: Body weight was recorded daily and the animals were examined for their physical appearance. After five days of treatment, animals were sacrificed. The colon was excised between the ileocecal junction and rectum, and opened longitudinally. After scoring of the consistency of the stool the colon was rinsed in normal saline, examined and thickness of the colonic wall and number and size of ulcers were scored. Stool consistency was graded on a scale of 0-3: 0=normal stool, well formed pellets rigid as normal; 1=loose stool, formed pellet with moisture, soft stool keeping in stool shape; 2=loose stool, stools that have abnormal form with much moisture, softer shapeless stool; 3=watery or bloody diarrhea.
Thickness of colonic wall was graded on a scale of 0-4: 0=normal, no thickness; 1=mild thickness in lower portion of the colon; 2=moderate thickness in localized area; 3=moderate thickness extending to the central portion of the colon; 4=severe thickness in the whole colon. Colonic ulceration was graded on a scale of 0-10: 0=no ulcers; 1=one small ulcer less than 2-3 mm; 2=one large ulcer more than 2-3 mm; 3=two large ulcerations more than 2-3 mm in diameter; 4=two or more sites of ulcerations extending 1 cm along the length; 5-10=when an area of ulceration extended more than 1 cm along the length of the colon, the score increases by 1 for each additional cm of involvement. The total IBD score, obtained by the sum of the scores of colonic ulcer, colon thickness and stool consistency for each animal, was calculated for each treatment group.
Methods: Colitis was induced in rats using DNBS as described in Example 25. Animals were treated intracolonically (250 μl of the test reagents) once a day for five days. […] Methods: Colitis was induced in rats using DNBS as described in Example 25. Animals were treated intracolonically (250 μl of the test reagents) once a day for five days.

[4] = DNBS-induced colitis in rat: body weight; format: in vivo; details: rats with DNBS colitis, intracolonic or oral treatment
DNBS-induced colitis [5] = experiment: DNBS-induced colitis in rat: colon histopathological inflammation score; format: in vivo; details: oral 100 mg/kg, five days
Method: Histopathology: A piece of colonic tissue at 2-4 cm proximal to the anus was excised and fixed in 10% formalin and the sections were stained with hematoxylin and eosin. The remaining length of the colonic tissues was stored at −80° C. for subsequent biochemical assays. The histology slides were examined by a veterinary pathologist who was blinded to the treatment groups. The extent of microscopic mucosal damage of the colon was scored on scale of 0-5 as described with slight modification: 0=normal histological appearance; 1=histological damage limited to surface epithelium, mild infiltration of the submucosa; 2=focal ulceration and cell disruption limited to mucosa, abnormal appearance of colonic wall, mild infiltration of inflammatory cells; 3=focal, transmural inflammation and ulceration, with mild to moderate infiltration of inflammatory cells; 4=Extensive transmural ulceration and inflammation bordered by areas of normal mucosa, moderate infiltration of inflammatory cells; 5=extensive transmural ulceration and inflammation involving entire section from epithelium to serosa, severe infiltration of inflammatory cells.

IL-1β = experiment: Immunohistochemical staining of colon tissue; format: in vivo, rat; details: oral treatment, five days
Method: (§1) Immunohistochemistry: A Universal Streptavidin/Biotin detection system (Thermo Shandon, Pittsburgh, Pa.) was used for immunohistochemical staining of formalin fixed, paraffin embedded biopsies of the colon. After dewaxing, and hydration, sections were treated with protein blocking agent to reduce non-specific binding of antibodies. The tissues were then incubated with rabbit anti-rat TNF-α, or mouse anti-rat IL-12 p70 antibodies (Biosource International, Inc, Camarillo, Calif.); rabbit anti-rat IL-1β (Serotec, Raleigh, N.C.) or rabbit anti-rat MMP-9 antibody (Chemicon International, Telecuma, Calif.) in 1% bovine serum albumin in phosphate buffered saline. Incubations with secondary antibodies, streptavidin/biotin, and chromogenic detection of peroxidase were performed according to the manufacturer's protocol. Sections were counterstained, dehydrated, mounted and examined. The intensity of the immuno-peroxidase staining was graded as described previously. Expression of cytokines was graded as: 0, no staining in the section; 1, less than 25% of the section; 2, 25-50% of the section; 3, 50-75% of the section; 4, >75% of the section with significant staining.

MMP-9 [6] = experiment: Immunohistochemical staining of colon tissue; format: in vivo, rat; details: oral treatment, five days
Method: as §1

TNF-α = experiment: Immunohistochemical staining of colon tissue; format: in vivo, rat; details: oral treatment, five days
Method: as §1

MMP-9 [7] = experiment: Gelatin zymography of colonic homogenates; format: in vivo, rat; details: oral 100 mg/kg
Method: Gelatin Zymography Activities of MMP-9 and MMP-2 in colonic tissue homogenates were determined by gelatin zymography as described previously. Briefly, colonic homogenates were mixed with equal volume of zymograph sample buffer. Samples were loaded on a 10% SDS-polyacrylamide gel containing 0.1% gelatin. After electrophoresis, the SDS was removed from the gel by incubation with renaturing buffer containing 2% Triton-X-100 for 1 hour. The gel was incubated overnight in developing buffer containing 50 mM Tris-HCl, pH 7.8, 5 mM CaCl2, 0.2 M NaCl, 0.02% Brij-35. The gel was subsequently stained with Coumassie blue for 30 minutes and destained with destaining solution containing 8% acetic acid and 4% methanol. Gelatinolytic activity was determined as transparent bands against the blue background of stained gelatin. MMPs were identified by their molecular weight compared with the standards. Absence of a transparent band on the gel was evidenced as no MMP-9 or MMP-2 activity of the sample tested.

Pseudomonas aeruginosa = experiment: MIC assay (microdilution); format: cell-based
Staphylococcus aureus = experiment: MIC assay (microdilution); format: cell-based; details: lactate solutions
[8] = test system: Staphylococcus epidermidis; experiment: MIC assay (microdilution); format: cell-based; details: S. epiderm (ATCC); lactate solutions
Streptococcus pyogenes = experiment: MIC assay (microdilution); format: cell-based; details: lactate solutions
Streptococcus pneumoniae = experiment: MIC assay (microdilution); format: cell-based; details: lactate solutions

In the case of `OCc1ccccc1` [Benzyl alcohol], the “Reaction with nanocrystalline silver” value [1] is reported as “Grey/slightly red”.
For `CCCCCCCCCCCCCCCCCCO` [Cetearyl alcohol], the “Reaction with nanocrystalline silver” value [1] was “Light brown/green/black”.
With `CCCCCCCCCCCCCCCCO` [Cetyl alcohol] the “Reaction with nanocrystalline silver” value [1] was “Grey color - no discoloration”.
For `CCCCCCCCCCCCCCCCCC(=O)OCC(O)CO` (centres unmarked) [Glycerol monostearate], the “Reaction with nanocrystalline silver” value [1] was “Brown discoloration”.
For `CCCCCCCCCCCCCC(=O)OC(C)C` [Isopropyl myristate], the “Reaction with nanocrystalline silver” value [1] was “Grey color - no discoloration”.
In the case of `COC(=O)c1ccc(O)cc1` [Methylparaben], the “Reaction with nanocrystalline silver” value [1] is reported as “Brown discoloration”.
For `CC(O)CO` (centres unmarked) [Propylene glycol], the “Reaction with nanocrystalline silver” value [1] was “Discoloration”.
For `CCCOC(=O)c1ccc(O)cc1` [Propylparaben], the “Reaction with nanocrystalline silver” value [1] was “Green discoloration”.
For `OO` [Sample H2O2, hydrogen peroxide], the “Reaction with nanocrystalline silver” value [1] was “Brown discoloration after drying”, the MIC (Enterobacter cloacae; SOD and catalase +) was >500 µg/mL and the MIC (Enterobacter cloacae; SOD and catalase −) was 63 µg/mL (≈ 1850 µM). The MIC (Escherichia coli; SOD and catalase +) was >500 µg/mL and the MIC (Escherichia coli; SOD and catalase −) was 31 µg/mL (≈ 911 µM).
In the case of `O=C([O-])c1ccccc1.[Na+]` [Sodium benzoate], the “Reaction with nanocrystalline silver” value [1] is reported as “White precipitate”.
In the case of `CCCCCCCCCCCCCCCCCC(=O)O` [Stearic acid], the “Reaction with nanocrystalline silver” value [1] is reported as “Grey color - no discoloration”.
For `CCOCCOCCO` [Transcutol, diethylene glycol monoethyl ether], the “Reaction with nanocrystalline silver” value [1] was “Grey color - no discoloration”.
Compound `CC[C@@H](CO)NCCN[C@@H](CC)CO` [ethambutol] has an MIC ([2]; Mycobacterium tuberculosis) of 2 µg/mL (≈ 9.79 µM).
With `O=C(O)c1cc(/N=N/c2ccc(S(=O)(=O)Nc3ccccn3)cc2)ccc1O` [sulfasalazine, salicylazosulfapyridine] the “total IBD score” value (DNBS-induced colitis [3]; intracolonic 100 mg/kg, five days) was “Significant reduction of IBD score; also recorded: significantly reduced total IBD score”, the “total IBD score” value (DNBS-induced colitis [3]; intracolonic 100 mg/kg, five days, listed as Sulfasalazine) was “significantly reduced total IBD score” and the “total IBD score” value (DNBS-induced colitis [3]; oral 100 mg/kg, five days) was “significant reduction of the IBD score”. For the same compound, the body weight [4] was “started gaining body weight after one day of treatment”, the histopathological inflammation score (DNBS-induced colitis [5]) was “significantly reduced the histopathological inflammation” and the “expression of IL-1β in colonic tissue” value (IL-1β) was “significantly reduced the expression of TNF-α and IL-1β”. The “expression of MMP-9 in colonic tissue” value (MMP-9 [6]) was “significantly reduced the expression of MMP-9”, the “expression of TNF-α in colonic tissue” value (TNF-α) was “significantly reduced the expression of TNF-α and IL-1β” and the MMP-9 activity (MMP-9 [7]) was “reduced MMP-9 activity”.
Benzalkonium chloride [BAC] gave an MIC (Pseudomonas aeruginosa; isolate NP220 (BAC-sensitive)) of 63 µg/mL, an MIC (Pseudomonas aeruginosa; isolate NP221 (BAC-resistant)) of 4000 µg/mL and an MIC (Pseudomonas aeruginosa; isolate NP222 (BAC-sensitive)) of 63 µg/mL.
For Sodium parabens, the “Reaction with nanocrystalline silver” value [1] was “Precipitation”.
Compound silver oxide [Ag2O] has an MIC (Staphylococcus aureus; S. aureus (ATCC)) of 3 µg/mL, an MIC (Staphylococcus aureus; S. aureus (clin.)) of 6 µg/mL and an MIC [8] of 2 µg/mL. The MIC (Streptococcus pyogenes; S. pyog (clin. 303)) was 2 µg/mL, the MIC (Streptococcus pyogenes; S. pyog (clin. 304)) was 3 µg/mL and the MIC (Streptococcus pneumoniae; S. pneumo (clin 314)) was 3 µg/mL. For the same compound, the MIC (Streptococcus pneumoniae; S. pneumo (clin 315)) was 2 µg/mL, the MIC (Pseudomonas aeruginosa; P. aerug (ATCC), lactate solutions) was 0.8 µg/mL and the MIC (Pseudomonas aeruginosa; P. aerug. (clin.), lactate solutions) was 2 µg/mL. The MIC (Escherichia coli; E. coli (ATCC), lactate solutions) was 0.8 µg/mL, the MIC [2] was 2.5 μg/ml silver and the “total IBD score” value (DNBS-induced colitis [3]; 0.05% sonicated nanodispersion, 250 μl intracolonically once a day for five days) was “but not 0.15% and 0.05%, significantly reduced”. The “total IBD score” value (DNBS-induced colitis [3]; 0.15% sonicated nanodispersion, 250 μl intracolonically once a day for five days) was “but not 0.15% and 0.05%, significantly reduced”, the “total IBD score” value (DNBS-induced colitis [3]; 0.25% homogenized, 250 μl intracolonically once a day for five days) was “unable to show significant reduction” and the “total IBD score” value (DNBS-induced colitis [3]; 0.5% homogenized, 250 μl intracolonically once a day for five days) was “unable to show significant reduction”. For the same compound, the “total IBD score” value (DNBS-induced colitis [3]; 0.5% sonicated nanodispersion, 250 μl intracolonically once a day for five days, vs placebo) was “significantly reduced the total IBD score” and the “total IBD score” value (DNBS-induced colitis [3]; 1.5% sonicated nanodispersion, 250 μl intracolonically once a day for five days) was “significantly reduced the total IBD score”.
